In PubChem BioAssay AID278 (DTP/NCI, 2004):
Records with an inconclusive call do not appear.

System: nude mice, A549 intrarenal xenograft, tumor weight change
Assay: NCI In Vivo Anticancer Drug Screen. Data for tumor model A549 Human Adenocarcinoma of Lung with characteristics of Type II Alveolar Epithelial cells (intrarenal inoculation) in NU/NU BALB/C (nude) mice
Conditions: endpoint: mean tumor weight change, schedule: Q04DX003 (ip), higher = larger tumour
How it was run: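 Mice bearing transplantable tumors were treated and survival or tumor size recorded. Values are given as treated-group measurement divided by vehicle-control measurement (T/C).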

Row | SMILES | T/C (dose: 6.25 mg/kg/injection, vehicle: saline) | T/C (dose: 25.0 mg/kg/injection, vehicle: saline) | T/C (dose: 50.0 mg/kg/injection, vehicle: saline) | T/C (dose: 100.0 mg/kg/injection, vehicle: saline with Tween-80) | T/C (dose: 200.0 mg/kg/injection, vehicle: saline with Tween-80)
1 | CCOc1ccc(-c2nc3ccc(-c4nc5ccc(N6CCN(C)CC6)cc5[nH]4)cc3[nH]2)cc1 | 155 % of control | 101 % of control | 171 % of control |  | 
2 | Cc1nc2c(N)cc(Cl)cc2[nH]1 |  |  |  | 89 % of control | 95 % of control
